Laboratory results: patent EP0051773A1, “Penicillins, their salts, process for their preparation and pharmaceutical compositions containing them” (Dr. Karl Thomae GmbH, priority 1980, dated 1982)
≈ marks a conversion by molar mass, not a printed value.

Tests used:
[1] = test system: Enterobacter cloacae ATCC 13 047; test: serial dilution test in microtiter system (bacteriostasis, MIC); type: cell-based; details: ATCC13, liquid medium, 18 to 20 h at 37°C, read-out: MHK-Werte Eb. cloacae 13 047
Protocol: (§1) Für die Untersuchungen wurde die Methode des Reihenverdünnungstestes im Mikrotitersystem angewandt. Die Prüfung der Substanzen auf Bakteriostase erfolgte in flüssigem Medium. Es wurde die Bakteriostasewirkung bei folgenden Konzentrationen untersucht.
(§2) Es wurde ein Nährboden folgender Zusammensetzung benutzt: 10 g Pepton, 8 g Fleischextrakt-Oxoid, 3 g Natriumschlorid, 2 g sek. Natriumphosphat werden mit dest. Wasser auf 1000 ml aufgefüllt (pH 7,2-7,4). Lediglich bei der Testung gegen Streptokokken wurde 1% Glucose hinzugefügt. Das Alter der Primärkulturen betrug etwa 20 Stunden. Die Einstellung der Keimsuspension erfolgte am Photometer (nach "Eppendorf") (Reagenzglas-Durchmesser 14 mm, Filter 546 nm) anhand der Trübung einer Bariumsulfat-Vergleichssuspension, die durch eine Bariumsulfat-Aufschwemmung erzeugt wurde, welche durch die Zugabe von 3,0 ml 1%ige Bariumchloridlösung in 97 ml 1%ige Schwefelsäure entstand. Nach der Einstellung wurden Streptococcus Aronson im Verhältnis 1:15 und die übrigen Testkeime im Verhältnis 1:1500 mit einer Kochsalzlösung weiter verdünnt.
(§3) 16 mg der jeweiligen Substanz wurden in 10 ml-Meßkolben eingewogen und mit dem Lösungsmittel bis zur Marke aufgefüllt. Die weitere Verdünnungsreihe wurde mit destilliertem Wasser oder dem jeweiligen Lösungsmittel hergestellt.
(§4) Die Vertiefungen der Mikrotiterplatten wurden mit 0,2 ml Nährmedium, 0,01 ml der entsprechenden Substanzverdünnung und mit einem Tropfen Keimsuspension (0,01 ml) beschickt und 18 bis 20 Stunden bei 37°C bebrütet. Eine Lösungsmittelkontrolle wurde stets mitgeführt.
(§5) Die Ablesung wurde makroskopisch vorgenommen, wobei die jeweilige Grenkonzentration (= niedrigste noch bakteriostatisch wirksame Konzentration) ermittelt wurde.
(§6) Als Testorganismen wurden benützt: - Staphylococcus aureus SG 511, Escherichia coli ATCC 11 775, Pseudomonas aeruginosa Hamburgensis und Walter, Serratia marcescens ATCC 13 880, Klebsiella pneumoniae ATCC 10 031 und BC 6, Proteus mirabilis Hamburgensis, Proteus rettgeri BC 7 und Enterobacter cloacae ATCC 13 047.
(§7) In der folgenden Tabelle 2 sind die ermittelten minimalen Hemmkonzentrationen (MIC) für typische Vertreter der erfindungsgemäßen Verbindungen aufgeführt, wobei sich die Ziffern auf die Penicilline der Tabelle 1 Seite 18 beziehen.

[2] = test system: Escherichia coli ATCC 11 775; test: as above; type: cell-based; details: ATCC11, liquid medium, 18 to 20 h at 37°C, read-out: MHK-Werte E.coli ATCC 11 755
Protocol: as §1, §2, §3, §4, §5, §6, §7

[3] = test system: Klebsiella pneumoniae ATCC 10 031; test: as above; type: cell-based; details: ATCC10, liquid medium, 18 to 20 h at 37°C, read-out: MHK-Werte Kl. pneum. ATCC 10 031
Protocol: as §1, §2, §3, §4, §5, §6, §7

[4] = test system: Klebsiella pneumoniae BC 6; test: as above; type: cell-based; details: BC6, liquid medium, 18 to 20 h at 37°C, read-out: MHK-Werte Kl. pneum. BC 6
Protocol: as §1, §2, §3, §4, §5, §6, §7

[5] = test system: Proteus mirabilis Hamburgensis; test: as above; type: cell-based; details: liquid medium, 18 to 20 h at 37°C, read-out: MHK-Werte Prot. mir. Hbg.
Protocol: as §1, §2, §3, §4, §5, §6, §7

Proteus rettgeri BC 7 = test: as above; type: cell-based; details: Providencia rettgeri, BC7; liquid medium, 18 to 20 h at 37°C; read-out: MHK-Werte Prot. rettg. BC 7
Protocol: as §1, §2, §3, §4, §5, §6, §7

[6] = test system: Pseudomonas aeruginosa Hamburgensis; test: as above; type: cell-based; details: liquid medium, 18 to 20 h at 37°C, read-out: MHK-Werte Pseud. aerug. Hbg.
Protocol: as §1, §2, §3, §4, §5, §6, §7

[7] = test system: Pseudomonas aeruginosa Walter; test: as above; type: cell-based; details: liquid medium, 18 to 20 h at 37°C, read-out: MHK-Werte Pseud. aerug. Walter
Protocol: as §1, §2, §3, §4, §5, §6, §7

[8] = test system: Serratia marcescens ATCC 13 880; test: as above; type: cell-based; details: ATCC13, liquid medium, 18 to 20 h at 37°C, read-out: MHK-Werte Serr. marcesc. ATCC 13 880
Protocol: as §1, §2, §3, §4, §5, §6, §7

[9] = test system: Staphylococcus aureus SG 511; test: as above; type: cell-based; details: SG511, liquid medium, 18 to 20 h at 37°C, read-out: MHK-Werte Staph. aureus SG 511
Protocol: as §1, §2, §3, §4, §5, §6, §7

E.coli ATCC 11 775 = test: experimental intraperitoneal infection in mice, ED50 (survival); type: in vivo, Mäuse; details: Escherichia coli, ATCC 11 / ATCC 1175, sc, 168 h; female NMRI mice, i.p. infection, s.c. application, treated once, 7 days observation
Protocol: (§8) Eine Reihe der erfindungsgemäßen Verbindungen wurde in vivo bei experimentellen Infektionen an Mäusen untersucht. Man verwendete als pathogene Bakterien E.coli ATCC 11 775 und Pseudomonas aeruginosa Walter. Es wurde eine intraperitoneale Infektion mit 0,2 ml einer 5%igen Mucinsuspension der Bakterien gesetzt. Dies entspricht etwa 2x10^6 Keime E.coli bzw. 8x10^5 Keime Pseudomonas/Maus. Weibliche Mäuse vom Stamm NMRI wurden in Gruppen von jeweils 10 Tieren aufgeteilt, zwei Gruppen blieben unbehandelt, die restlichen Gruppen wurden mit verschiedenen Dosen der jeweiligen erfindungsgemäßen Penicilline zur Bestimmung der ED50 (Dosis, bei der 50 % der Tiere überleben) behandelt. Bei der E.coli-Infektion wurde einmal therapiert. Bei der Pseudomonas-Infektion wurde dreimal behandelt.
(§9) Der Beobachtungszeitraum betrug in beiden Fällen 7 Tage. Die Ergebnisse dieser Teste mit repräsentativen Vertretern der erfindungsgemäßen Penicilline sind in der Tabelle 3 dargestellt.

[10] = test system: Pseudomonas aeruginosa Walter; test: as above; type: in vivo, Mäuse; details: sc, 168 h, female NMRI mice, i.p. infection, s.c. application, treated three times, 7 days observation, read-out: ED50 Pseud. aerug. Walter
Protocol: as §8, §9

With `CNC(=O)c1ccc(Nc2ncc(NC(=O)NC(C(=O)NC3C(=O)N4C3SC(C)(C)C4C(=O)O)c3ccc(O)cc3)c(O)n2)cc1` (stereo not drawn) [Verbindung 37] the MIC [1] was 1 µg/mL (≈ 1.54 µM), the MIC [2] was 0.25 µg/mL (≈ 0.384 µM) and the MIC [3] was 2 µg/mL (≈ 3.07 µM). The MIC [4] was 2 µg/mL (≈ 3.07 µM), the MIC [5] was 0.06 µg/mL (≈ 0.0922 µM) and the MIC (Proteus rettgeri BC 7) was 0.5 µg/mL (≈ 0.768 µM). The MIC [6] was 1 µg/mL (≈ 1.54 µM), the MIC [7] was 1 µg/mL (≈ 1.54 µM) and the MIC [8] was 0.25 µg/mL (≈ 0.384 µM). It also gave an MIC [9] of 0.5 µg/mL (≈ 0.768 µM), an ED50 (E.coli ATCC 11 775) of 2.8 mg/kg and an ED50 [10] of 8 mg/kg.
With `CC1(C)SC2C(NC(=O)C(NC(=O)Nc3cnc(Nc4ccc(S(N)(=O)=O)c(O)c4)nc3O)c3ccc(O)cc3)C(=O)N2C1C(=O)O` (stereo not drawn) [Verbindung 44] the MIC [1] was 0.5 µg/mL (≈ 0.726 µM), the MIC [2] was 0.12 µg/mL (≈ 0.174 µM) and the MIC [3] was 1 µg/mL (≈ 1.45 µM). It also gave an MIC [4] of 1 µg/mL (≈ 1.45 µM), an MIC [5] of 0.03 µg/mL (≈ 0.0436 µM) and an MIC (Proteus rettgeri BC 7) of 0.25 µg/mL (≈ 0.363 µM). For the same compound, the MIC [6] was 0.5 µg/mL (≈ 0.726 µM), the MIC [7] was 0.5 µg/mL (≈ 0.726 µM) and the MIC [8] was 0.12 µg/mL (≈ 0.174 µM). It also gave an MIC [9] of 0.25 µg/mL (≈ 0.363 µM), an ED50 (E.coli ATCC 11 775) of 2.1 mg/kg and an ED50 [10] of 3.6 mg/kg.
For `CC1(C)SC2C(NC(=O)C(NC(=O)Nc3cnc(Nc4ccc(S(N)(=O)=O)c(O)c4)nc3O)c3ccccc3)C(=O)N2C1C(=O)O` (stereo not drawn) [Verbindung 45], the MIC [1] was 1 µg/mL (≈ 1.49 µM), the MIC [2] was 0.12 µg/mL (≈ 0.178 µM) and the MIC [3] was 0.5 µg/mL (≈ 0.743 µM). It also gave an MIC [4] of 1 µg/mL (≈ 1.49 µM), an MIC [5] of 0.06 µg/mL (≈ 0.0892 µM) and an MIC (Proteus rettgeri BC 7) of 0.25 µg/mL (≈ 0.372 µM). For the same compound, the MIC [6] was 1 µg/mL (≈ 1.49 µM), the MIC [7] was 0.5 µg/mL (≈ 0.743 µM) and the MIC [8] was 0.12 µg/mL (≈ 0.178 µM). For the same compound, the MIC [9] was 0.12 µg/mL (≈ 0.178 µM), the ED50 (E.coli ATCC 11 775) was 3.2 mg/kg and the ED50 [10] was 5.2 mg/kg.
With `C[S+]([O-])c1ccc(CNc2ncc(NC(=O)NC(C(=O)N[C@@H]3C(=O)N4[C@@H]3SC(C)(C)[C@@H]4C(=O)O)c3ccc(O)cc3)c(O)n2)cc1` (stereo partly drawn) [Verbindung 62] the MIC [1] was 4 µg/mL (≈ 5.97 µM), the MIC [2] was 0.5 µg/mL (≈ 0.747 µM) and the MIC [3] was 4 µg/mL (≈ 5.97 µM). It also gave an MIC [4] of 8 µg/mL (≈ 11.9 µM), an MIC [5] of 0.12 µg/mL (≈ 0.179 µM) and an MIC (Proteus rettgeri BC 7) of 1 µg/mL (≈ 1.49 µM). It also gave an MIC [6] of 2 µg/mL (≈ 2.99 µM), an MIC [7] of 2 µg/mL (≈ 2.99 µM) and an MIC [8] of 1 µg/mL (≈ 1.49 µM). It also gave an MIC [9] of 0.5 µg/mL (≈ 0.747 µM), an ED50 (E.coli ATCC 11 775) of 5.9 mg/kg and an ED50 [10] of 18.3 mg/kg.
`CC1(C)S[C@@H]2[C@H](NC(=O)C(NC(=O)Nc3cnc(NCc4ccc(S(N)(=O)=O)cc4)nc3O)c3ccc(O)cc3)C(=O)N2[C@H]1C(=O)O` (stereo partly drawn) [Verbindung 64] showed an MIC [1] of 2 µg/mL (≈ 2.91 µM), an MIC [2] of 0.12 µg/mL (≈ 0.175 µM) and an MIC [3] of 4 µg/mL (≈ 5.82 µM). It also gave an MIC [4] of 4 µg/mL (≈ 5.82 µM), an MIC [5] of 0.06 µg/mL (≈ 0.0874 µM) and an MIC (Proteus rettgeri BC 7) of 0.5 µg/mL (≈ 0.728 µM). It also gave an MIC [6] of 2 µg/mL (≈ 2.91 µM), an MIC [7] of 1 µg/mL (≈ 1.46 µM) and an MIC [8] of 0.25 µg/mL (≈ 0.364 µM). It also gave an MIC [9] of 0.25 µg/mL (≈ 0.364 µM), an ED50 (E.coli ATCC 11 775) of 2.4 mg/kg and an ED50 [10] of 12.4 mg/kg.
